According to patent US10563263B2, “Genetic polymorphisms associated with statin response and cardiovascular diseases, methods of detection and uses thereof” (CELERA CORPORATION, priority 2010, dated 2020):

Test system: CHD (death from CHD, nonfatal MI, or revascularization)
Assay: WOSCOPS: SNP by pravastatin treatment interaction, logistic regression (synergy index), CHD endpoint
Assay type: in vivo, human
Settings: for OR (synergy index), WOSCOPS, Prava vs Placebo: CHD endpoint; for OR (synergy index): WOSCOPS
From the text: CARE was a secondary prevention trial and WOSCOPS was a primary prevention trial.
The CHD endpoint was defined in the analyses herein of CARE as a composite endpoint of fatal CHD, definite non-fatal MI, or revascularization, and was defined in the analyses herein of WOSCOPS as a composite endpoint of death from CHD, nonfatal MI, or revascularization. In both the CARE and WOSCOPS analyses herein, the CVD endpoint was defined as a composite endpoint of CHD or stroke. […] Revascularization, which can include percutaneous transluminal coronary angioplasty (PTCA), stent placement, and coronary artery bypass graft (CABG), are medical interventions that indicate the presence of CHD.
Cohort and case-only study designs were used to identify SNPs associated with response to statin treatment.
For each SNP, a logistic regression model having treatment status as the dependent variable and SNP as the independent predictor variable was performed, with terms for age, sex and race included in the model as covariates. The anti-log of the regression coefficient corresponding to the SNP is an estimate of the synergy index (SI) (Davis et al., “Imputing gene-treatment interactions when the genotype distribution is unknown using case-only and putative placebo analyses-a new method for the Genetics of Hypertension Associated Treatment (GenHAT) study”, Statistics in Medicine 23: (2004), pages 2413-2427). The SI is a ratio of odds ratios: for example in the CARE and WOSCOPS studies, the SI represents the factor by which the odds-ratio of statin treatment, compared with placebo, among major homozygous individuals is multiplied by in order to obtain the odds-ratio of treatment vs. placebo among heterozygous individuals; and multiplied by a second time to obtain the odds-ratio of treatment vs. placebo in minor homozygous individuals. The case-only study design results in a valid estimate of the SI under the assumption that genotype and treatment are independent in the population. In a randomized clinical trial, genotype and treatment are independent by design. The p-value for the regression coefficient corresponding to the SNP results from a test of the null hypothesis that the regression coefficient is equal to zero (SI is equal to one) and thus small p-values indicate the SI is unlikely equal to one and that the effect of treatment likely differs by genotype. […]

CC[C@H](C)C(=O)O[C@H]1C[C@H](O)C=C2C=C[C@H](C)[C@H](CC[C@@H](O)C[C@@H](O)CC(=O)O)[C@H]21 [Pravastatin, pravastatin]
OR (synergy index), WOSCOPS, Prava vs Placebo (SNP rs198462 (A1 G, A2 A), rec model, Caseonly): 2.12 | OR (synergy index), WOSCOPS, Prava vs Placebo (SNP rs198476 (A1 G, A2 A), rec model, cohort): 1.61 | OR (synergy index), WOSCOPS, Prava vs Placebo (SNP rs471579 (A1 A, A2 C), add model, Caseonly): 1.62 | OR (synergy index), WOSCOPS, Prava vs Placebo (SNP rs1324012 (A1 A, A2 G), add model, Caseonly): 0.60 | OR (synergy index), WOSCOPS, Prava vs Placebo (SNP rs1917527 (A1 A, A2 C), rec model, Caseonly): 0.73 | OR (synergy index), WOSCOPS, Prava vs Placebo (SNP rs7873371 (A1 A, A2 G), add model, Caseonly): 1.59 | OR (synergy index) (rs992695, Imputed, allele (A1) C, model ADD, NMISS 431): 0.7364 | OR (synergy index) (rs992695, Imputed, allele (A1) C, model DOM, NMISS 431): 0.6065 | OR (synergy index) (rs9881685, Imputed, allele (A1) A, model ADD, NMISS 431): 0.4853 | OR (synergy index) (rs9881685, Imputed, allele (A1) A, model DOM, NMISS 431): 0.4903 | OR (synergy index) (rs9936999, Imputed, allele (A1) G, model DOM, NMISS 249): 1.779 | WOSCOPS OR (rs1948, source CaseOnly, model dom, endpoint CHD): 1.96 | WOSCOPS OR (rs198476, Source cohort): 1.61 | WOSCOPS OR (rs238272, source CaseOnly, model add, endpoint CHD): 1.46 | WOSCOPS OR (rs264122, Source cohort): 0.66 | OR (synergy index) (rs483159 allele T, DOM model, Imputed): 1.412 | OR (synergy index) (rs489441 allele G, ADD model, Imputed): 1.6 | OR (synergy index) (rs489441 allele G, DOM model, Imputed): 1.651 | WOSCOPS OR (rs694780, Source caseonly): 0.62 | WOSCOPS OR (rs842796, source CaseOnly, model dom, endpoint CHD): 1.38 | WOSCOPS OR (rs886469, source CaseOnly, model dom, endpoint CHD): 0.55 | WOSCOPS OR (rs912366, source CaseOnly, model dom, endpoint CHD): 1.79 | WOSCOPS OR (rs969356, source CaseOnly, model dom, endpoint CHD): 0.54 | WOSCOPS OR (rs1009748, Source cohort): 1.35 | WOSCOPS OR (rs1015199, Source caseonly): 1.66 | WOSCOPS OR (rs1190706, Source cohort): 0.70 | WOSCOPS OR (rs1336400, Source caseonly): 1.35 | WOSCOPS OR (rs1538185, source cohort, model dom, endpoint CHD): 1.41 | WOSCOPS OR (rs1544214, source CaseOnly, model add, endpoint CHD): 1.35 | WOSCOPS OR (rs1615197, source CaseOnly, model dom, endpoint CHD): 2.25 | WOSCOPS OR (rs1705244, source CaseOnly, model dom, endpoint CHD): 0.52 | WOSCOPS OR (rs1864924, source CaseOnly, model add, endpoint CHD): 1.36 | WOSCOPS OR (rs1877986, source cohort, model dom, endpoint CHD): 0.71 | WOSCOPS OR (rs1884897, source CaseOnly, model rec, endpoint CHD): 1.78 | WOSCOPS OR (rs2008165, source cohort, model add, endpoint CHD): 0.62 | WOSCOPS OR (rs2069542, source CaseOnly, model add, endpoint CHD): 1.49 | WOSCOPS OR (rs2104506, source CaseOnly, model add, endpoint CHD): 0.65 | WOSCOPS OR (rs2108425, Source caseonly): 0.62 | WOSCOPS OR (rs2263901, source CaseOnly, model add, endpoint CHD): 1.57 | WOSCOPS OR (rs2263920, source CaseOnly, model rec, endpoint CHD): 0.41 | WOSCOPS OR (rs2265346, source CaseOnly, model dom, endpoint CHD): 0.42 | WOSCOPS OR (rs2273816, source CaseOnly, model add, endpoint CHD): 1.69 | WOSCOPS OR (rs2274473, source CaseOnly, model dom, endpoint CHD): 0.48 | WOSCOPS OR (rs2327412, Source caseonly): 1.41 | WOSCOPS OR (rs2418412, source cohort, model rec, endpoint CHD): 1.58 | WOSCOPS OR (rs2616548, Source caseonly): 1.37 | WOSCOPS OR (rs2648694, Source caseonly): 2.29 | WOSCOPS OR (rs2655222, Source caseonly): 0.20 | WOSCOPS OR (rs2941528, source CaseOnly, model add, endpoint CHD): 0.58 | WOSCOPS OR (rs2993156, Source caseonly): 0.76 | WOSCOPS OR (rs3732788, source CaseOnly, model add, endpoint CHD): 0.44 | WOSCOPS OR (rs3759607, source CaseOnly, model dom, endpoint CHD): 1.73 | WOSCOPS OR (rs3763978, Source cohort): 0.68 | WOSCOPS OR (rs3998860, source CaseOnly, model add, endpoint CHD): 0.70 | WOSCOPS OR (rs4240808, Source caseonly): 0.61 | WOSCOPS OR (rs4242281, Source caseonly): 1.46 | OR (synergy index) (rs4315598 allele T, ADD model, Imputed): 1.407 | OR (synergy index) (rs4315598 allele T, REC model, Imputed): 1.414 | OR (synergy index) (rs4321395 allele A, DOM model, Imputed): 0.5278 | OR (synergy index) (rs4321596 allele T, REC model, Genotyped): 3.01 | OR (synergy index) (rs4324417 allele T, DOM model, Imputed): 1.541 | OR (synergy index) (rs4328619 allele G, DOM model, Genotyped): 0.6446 | OR (synergy index) (rs4338909 allele T, ADD model, Imputed): 1.42 | OR (synergy index) (rs4370878 allele G, DOM model, Imputed): 1.497 | OR (synergy index) (rs4379434 allele T, DOM model, Genotyped): 1.603 | OR (synergy index) (rs4416407 allele T, DOM model, Imputed): 1.502 | OR (synergy index) (rs4417899 allele C, REC model, Imputed): 0.6657 | WOSCOPS OR (rs4420312, Source caseonly): 0.64 | OR (synergy index) (rs4442732 allele A, ADD model, Imputed): 0.7543 | OR (synergy index) (rs4444612 allele G, ADD model, Imputed): 1.407 | OR (synergy index) (rs4444612 allele G, REC model, Imputed): 1.414 | OR (synergy index) (rs4450660 allele C, DOM model, Imputed): 1.776 | OR (synergy index) (rs4509702 allele C, DOM model, Imputed): 1.497 | OR (synergy index) (rs4533145 allele T, DOM model, Imputed): 0.6617 | OR (synergy index) (rs4557006 allele A, DOM model, Imputed): 0.5409 | OR (synergy index) (rs4570530 allele C, DOM model, Imputed): 1.497 | OR (synergy index) (rs4615971 allele C, DOM model, Imputed): 1.474 | OR (synergy index) (rs4628119 allele A, DOM model, Imputed): 0.5304 | OR (synergy index) (rs4664443 allele G, ADD model, Imputed): 0.6931 | WOSCOPS OR (rs4682522, source CaseOnly, model dom, endpoint CHD): 0.49 | OR (synergy index) (rs4688259 allele T, DOM model, Imputed): 1.502 | OR (synergy index) (rs4688632 allele G, REC model, Imputed): 0.6718 | OR (synergy index) (rs4695284 allele A, ADD model, Imputed): 1.566 | OR (synergy index) (rs4700302 allele A, ADD model, Imputed): 0.5418 | OR (synergy index) (rs4702720 allele A, ADD model, Imputed): 0.7075 | OR (synergy index) (rs4702720 allele A, DOM model, Imputed): 0.7149 | OR (synergy index) (rs4714484 allele A, ADD model, Imputed): 0.5609
